Assay results taken from patent US20180258459A1, “NITRATE BIOSENSOR” (priority 2015, published 2018).

Test system: NarL associated promoter
Assay: transfer of natural NarL with its associated promoter into B. subtilis
Type: cell-based
Conditions: natural NarL protein with its associated promoter, previous attempts

Substance: NarL: response regulator (RR) protein NarL from E. coli (UniProt P0AF28)
- functional transcription in B. subtilis: failed to result in functional transcription
